Measurements as given in BigSolDB 2.1.

C#CC(C)(C)NC(=O)c1cc(Cl)cc(Cl)c1
solubility (mole fraction)
Settings | 278.15 K | 283.15 K | 288.15 K | 293.15 K | 298.15 K | 303.15 K | 308.15 K | 313.15 K | 318.15 K | 323.15 K
in cyclohexane | – | 0.000135 | 0.000185 | 0.000293 | 0.000425 | 0.000544 | 0.000704 | 0.00081 | 0.00101 | 0.00124
in ethanol | 0.0071 | 0.00834 | 0.00953 | 0.011 | 0.0131 | 0.0151 | 0.0174 | 0.0205 | 0.0242 | 0.0295
in isopropanol | 0.00219 | 0.00269 | 0.00351 | 0.00526 | 0.00705 | 0.00865 | 0.0112 | 0.0137 | 0.0171 | 0.023
in methanol | 0.00654 | 0.0077 | 0.00892 | 0.0101 | 0.0124 | 0.0145 | 0.017 | 0.0201 | 0.0236 | 0.0283
in toluene | 0.00179 | 0.00238 | 0.00298 | 0.00368 | 0.00467 | 0.00593 | 0.00735 | 0.00924 | 0.0113 | 0.0124
